According to patent US20220276262A1, “Methods and Products for Assessing Lysosomal System Flux” (SOUTH AUSTRALIAN HEALTH AND MEDICAL RESEARCH INSTITUTE …, priority 2019, published 2022):
Entries after “also recorded” stand apart in the source; their conditions may differ.

Columns and labels:
[1] = test system: LC3B-II in PBMCs; assay: Autophagic flux in PBMCs by lysosomal inhibition in whole blood, LC3B western blot; format: cell-based, human
Protocol: Blood was collected in lithium heparin (Greiner Bio-One, vacuette tube 9 ml lithium heparin, 455084), or EDTA (Greiner Bio-One, vacuette tube 9 ml K3EDTA, 455036) blood collection tubes (6-9 ml). Unless otherwise stated, blood samples were split into two (2×3 ml) and pipetted into 10 ml conical centrifuge tubes. One of the blood samples was treated with a final concentration of 150 μM of chloroquine (CQ, chloroquine diphosphate, Sigma Aldrich, C6628) (9 μl of 50 mM for a final volume of 3 ml of blood). Blood was mixed gently by inverting both tubes 3-4 times. Both tubes (+CQ and −CQ) were incubated at 37° C. for 1 hour with rotation (10 revolutions per minute, Thermo Scientific Tube Revolver, 88881002).
After blood was incubated for 1 hour at 37° C., blood tubes were kept on ice to stop enzyme activity and vesicular trafficking. PBMCs were then isolated using standard procedures. To each tube, 3 ml of cold DPBS (Dulbecco's Phosphate-Buffered Saline, GIBCO) was added to 3 ml of blood (1:1) and samples were mixed by gently inverting tubes 3-4 times. Four ml of Lymphoprep (Stemcell Technologies, 07811) was carefully underlayed beneath the blood/DPBS mixture using a 10 mL syringe and a canula (sterile). This was repeated for both blood tubes (containing blood incubated without and with CQ). Tubes containing blood/DPBS underlayed with lymphoprep were centrifuged for 30 min at 800 g, with brake off at 4° C.
PBMCs were carefully aspirated with a 1 mL pipette and dispensed into a 10 mL conical centrifuge tube (approximately 2 ml volume containing PBMCs). PBMCs were then diluted with cold DPBS to a final volume of 5 ml. PBMCs and DPBS were mixed gently by inverting tubes 3-4 times. PBMCs were then pelleted by centrifugation at 600 g for 10 min at 4° C. (with brake). The supernatant was discarded.
PBMCs were resuspended with 1 ml of red blood cell lysis buffer (1×, BD Biosciences, 555899) and were mixed by gently pipetting. PBMCs were left on ice for 2 minutes, after which they were pelleted by centrifugation at 600 g for 5 min at 4° C. The supernatant was discarded and PBMCs were washed by resuspension in 5 ml of cold DPBS. PBMCs were pelleted again by centrifugation at 600 g for 5 min at 4° C. The supernatant was discarded and the cells were again resuspended in 1 ml of cold DPBS and this suspension was transferred to a 1.5 ml microcentrifuge tube. This tube was centrifuged at 2,000 g for 10 min at 4° C. The supernatant was discarded and the pellet containing PBMCs was frozen on dry ice and stored at −80° C. until biochemical analyses.
PBMC pellets were resuspended in a lysis buffer containing protease and phosphatase inhibitors (10 mM Tris pH 7.0, 1 mM EDTA, 0.5 mM EGTA, 1% Triton X-100, 0.1% sodium deoxycholate, 0.1% SDS, 140 mM NaCl, 2.5 mM sodium pyrophosphate, 1 mM sodium orthovanadate, 1 mM β-glycerophosphate (pH 7.4) protease inhibitor cocktail Roche (1×). Cell suspensions were then sonicated on ice 2×20 sec. Cell lysates were centrifuged at 2,000 g for 10 min at 4° C. and the supernatant collected.
Total protein was measured using a micro BCA protein assay kit [Thermo Fisher Scientific 23235]. Western blot analysis was performed using 10 μg of total protein of each of the homogenates that were electrophoresed at 130 V for 1 hour through 4-12% Bis-Tris Plus SDS-PAGE gels (Bolt™, Invitrogen, Thermofisher Scientific). The gels were transferred to a methanol-activated PVDF membrane at 35 V for 70 min. […]

[2] = test system: P62 in PBMCs; assay: Whole blood incubation, P62 western blot in PBMCs; format: cell-based, human; details: chloroquine 0-200 μM in whole blood, 1 h at 37° C., four subjects
Protocol: (§1) Blood was mixed gently by inverting both tubes 3-4 times.
(§2) (with brake). The supernatant was discarded.
(§3) This tube was centrifuged at 2,000 g for 10 min at 4° C.
(§4) The gels were transferred to a methanol-activated PVDF membrane at 35 V for 70 min.
(§5) The membranes were incubated overnight at 4° C. with primary antibodies diluted in block solution on a tube roller.

[3] = test system: LC3A in PBMCs; assay: Whole blood incubation, LC3A western blot in PBMCs; format: cell-based, human; details: chloroquine 0-200 μM in whole blood, 1 h at 37° C., four subjects
Protocol: as §1, §2, §3, §4, §5

[4] = test system: LC3B-II in PBMCs and PMNs; details: 150 μM chloroquine, one-hour, isolated PBMCs and PMNs in RPMI, N=3
Protocol: (§6) The supernatant was discarded.
as §6, §3, §4

[5] = test system: SQSTM1/P62 in PBMCs; assay: Primary culture of PBMCs with or without chloroquine, SQSTM1/P62 western blot; format: cell-based, human; details: 150 μM chloroquine, one-hour, isolated PBMCs in RPMI, N=3
Protocol: as §6
Images were analyzed using ImageJ software.
These populations were verified by flow cytometry (FIG. 5B).

`CO/C1=C\C(C)=C\[C@@H](C)[C@@H](O)[C@@H](C)C/C(C)=C/C=C/[C@H](OC)[C@@H]([C@@H](C)[C@@H](O)[C@H](C)[C@@]2(O)C[C@@H](O)[C@H](C)[C@@H](C(C)C)O2)OC1=O` [Bafilomycin, bafilomycin A1] was tested, and the “LC3BII cargo in PBMCs” value ([1]; whole blood from four individuals, one hour at 37° C., ethanol vehicle) was “increased LC3BII cargo”.
With `O=C([O-])CN(CCN(CC(=O)[O-])CC(=O)O)CC(=O)[O-].[K+].[K+].[K+]` [EDTA] the “LC3B-II signal in no-chloroquine samples (basal state)” value ([1]; EDTA tubes compared with lithium-heparin tubes, three subjects) was “lower”.
`CCN(CC)CCCC(C)Nc1ccnc2cc(Cl)ccc12` (stereo not drawn) [chloroquine] was tested, and the “LC3BII accumulation over time” value ([1]; 150 μM chloroquine in whole blood, 0-120 minutes of incubation) was “near-linear increase in LC3BII accumulation”, the “LC3B-II response to chloroquine titration (ΔLC3BII, measure of autophagic flux)” value ([1]; chloroquine 0-200 μM in whole blood, 1 h at 37° C., four subjects) was “robust directly proportional increase in response to increasing chloroquine concentration in whole blood up until 150 μM; also recorded: robust, directly proportional increase in response to increasing chloroquine concentration in whole blood up to 150 μM, after which a ceiling effect was observed” and the P62 protein abundance [2] was “increased protein abundance with chloroquine treatment was observed in three out of four subjects”. For the same compound, the “LC3A response to chloroquine treatment” value [3] was “not clearly responding”, the “LC3B-II level (LC3B-II degradation inhibited)” value [4] was “increase in LC3B-II” and the “P62 level after chloroquine treatment” value [5] was “did not change”.
With lithium heparin [lithium-heparin] the “autophagic flux (ΔLC3B-II) by anti-coagulant of the collection tube” value ([1]; lithium-heparin compared with EDTA tubes, 150 μM chloroquine one-hour at 37° C., three subjects) was “greater”.
